Here are results for one compound from article PMC4125160, “Neurotoxicity and Mode of Action of N, N-Diethyl-Meta-Toluamide (DEET)” (PLoS ONE, 2014).

The subject of one data set is Ae. aegypti. Put plainly: WHO filter paper contact toxicity bioassay. Format: in vivo. The settings on record: Aedes aegypti; WHO filter paper assay, 1 h exposure, mortality at 24 h; read-out: LC50 (95% CI).
The subject of the next data set is M. domestica. The experiment in a line: Topical toxicity bioassay. It is filed as in vivo, Musca domestica. The protocol:
(§1) Topical toxicity bioassays on adult female mosquitoes were performed based on the method of Pridgeon et al.. Briefly, insects were chilled on ice for 3 min, during which the appropriate volume (200 nL for mosquitoes, 1 µL for Musca) of chemical (dissolved in 95% ethanol) was applied onto the abdomen using a handheld Hamilton microapplicator. For each inhibitor, five doses were applied to groups of ten insects each and repeated three times. An ethanol-only treatment was included in each experiment as a negative control. Insects were transferred into a holding chamber post-treatment and supplied with free access to sugar water for the duration of the experiment. […] Three LD50 values were obtained and the mean LD50 value was calculated and used for statistical analysis.
(§2) For all toxicity assays, control mortality was corrected for using Abbots formula [19]; where corrected percent mortality = (% alive in control–% alive in treated) /% alive in control.

In another data set the test system is Drosophila melanogaster. The experiment in a line: Diet (sugar-feeding) toxicity assay. As to conditions: 1 mg/ml, mortality at 24 h. Format: in vivo. The protocol:
Diet toxicity assays were performed on mixed sex adult Drosophila melanogaster fasted for 8 hours prior to initiating the experiment. Flies were transferred into a container stoppered with a cotton ball infused with 1 ml of a sucrose/DEET solution containing 20 insects (2–3 day old adults). The assay was run three times on three different days with matched controls. Mortality was recorded at the 24-hour time point.
as §2

For data set [1], the system named is potassium channels (Kv2 delayed rectifier) in neonatal rat cortical neurons. The experiment in a line: Patch clamp of rat cortical neurons, potassium currents. It is filed as cell-based. The protocol: Rat cortical neurons (purchased from Lonza, Walkersville, MD, USA) were placed on poly-lysine coated glass cover slips in 35 mm dishes, and cultured in primary neuron basal medium with added 2% neural grown factor and 1% glutamine (from Lonza). The medium was half changed every 3 days, and the cells were used at 6–12 days. The neurons had dendrites and axons and the diameters of the somata were about 15–20 µm. Cells were cultured on cover slips and were immersed in 35 mm Petri dishes filled with room temperature extracellular saline. Patch pipettes were pulled from borosilicate glass capillaries with filament (BF150-86-10, Sutter Instrument, Novato CA, USA) on a P-1000 Flaming/Brown micropipette puller (Sutter Instrument). Extracellular solution was the same regardless of the target ion channel and contained: 140 mM NaCl, 5 mM KCl, 2 mM MgCl2, 2 mM CaCl2, 10 mM glucose, and 10 mM HEPES (pH = 7.4). Intracellular patch solution for potassium channel recordings consisted of: 140 mM KF, 10 mM NaCl, 2 mM MgCl2, and 10 mM HEPES (pH = 7.2). Intracellular patch solution for sodium channel recordings consisted of: 140 mM CsCH3SO3 10 mM NaCl, 2 mM MgCl2, 10 mM HEPES (pH = 7.2), where CsCH3SO3 was used to eliminate potassium currents during sodium channel analysis. The patch electrodes had resistances of 5–7 MOhms. […]

For a further data set, the system named is mosquitoes. Put plainly: Toxicity to mosquitoes (abstract summary). Format: in vivo. The protocol:
as §1

In brackets after ≈: the same amount, converted by molar mass.

`CCN(CC)C(=O)c1cccc(C)c1` [DEET, N, N-diethyl-meta-toluamide]: the LC50 with Ae. aegypti was 2300 µg/mL (≈ 12 mM). Further, the “LD50 (95% CI)” value in the data set on M. domestica (topical application, 24 hr) was 8104 (7026–9000)c ng/mg. In addition, the signs of intoxication result with M. domestica (toxicologically equivalent doses) is given as “mostly lethargic with only occasional bouts of excitation”. Moreover, the “toxicity in sugar-feeding assay” value in the data set on Drosophila melanogaster is reported as “non-toxic”. Besides, in data set [1], the “control current amplitude restored by washout” value is “approximately 50%”. Also, the LD50 result in the data set on mosquitoes was “ca. 1.5 µg/mg”.
